The supplement of paper PMC10949913

Columns and labels:
Assay in all cases: area under concentration-response curve (viability) (AUC (a.u.)); higher = less active
Details in all cases: 48 h
CU-ACC1 = tested on: CU-ACC1
In short: (§1)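 Three adrenocortical carcinoma cell lines were exposed for 48 h to library compounds at 11 concentrations in 1,536-well plates, then read by CellTiter-Glo luminescence. Signals were scaled per plate against vehicle and empty-well controls. From fitted concentration-response curves of inhibitory or non-responding classes alone, AC50 and area under the curve were obtained.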

CU-ACC2 = tested on: CU-ACC2
In short: as §1

NCI-H295R = tested on: NCI-H295R
In short: as §1

| SMILES | area under concentration-response curve (CU-ACC1) | area under concentration-response curve (CU-ACC2) | area under concentration-response curve (NCI-H295R) |
| --- | --- | --- | --- |
| O=P(O)(O)C(O)(Cc1cccnc1)P(=O)(O)[O][Na] (stereo not given) | 508 | 573 | 533 |
| O=C1Nc2ccc(I)cc2/C1=C/c1cc(Br)c(O)c(Br)c1 | 500 | 585 | 506 |
| C[C@@H]1[C@H](O)[C@@H](C)/C=C/C=C/C=C/C=C/C=C/C=C/C=C/[C@H](O[C@@H]2O[C@H](C)[C@@H](O)[C@H](N)[C@@H]2O)C[C@@H]2O[C@](O)(C[C@@H](O)C[C@@H](O)[C@H](O)CC[C@@H](O)C[C@@H](O)CC(=O)O[C@H]1C)C[C@H](O)[C@H]2C(=O)O | 550 | 633 | 595 |
| CC(C)=CCC/C(C)=C/CC/C(C)=C/CSc1ccccc1C(=O)O | 527 | 598 | 540 |
| O=c1oc2cc(O)ccc2s1 | 502 | 482 | 503 |
| Cc1[nH]c(/C=C2\C(=O)Nc3ccc([S+](=O)([O-])Cc4c(Cl)cccc4Cl)cc32)c(C)c1C(=O)N1CCC[C@@H]1CN1CCCC1 | 334 | 351 | 376 |
| [O-][S+]1(=O)/N=C(/NC2=CC(=CC=C2)NC(=O)CCl)C3=CC=CC=C13 | 446 | 557 | 528 |
| COc1ccc(C(=O)N2CCCC2=O)cc1 | 533 | 655 | 573 |
| Cc1noc(-c2ccc(-c3ccc(C4(C(=O)O)CC4)cc3)cc2)c1NC(=O)O[C@H](C)c1ccccc1 | 485 | 446 | 526 |
| O=C(NOCC(O)CO)c1ccc(F)c(F)c1Nc1ccc(I)cc1F (stereo not given) | 329 | 459 | 488 |
| C=C1/C(=C/C=C2\CCCC3(C)[C@@H]([C@H](C)/C=C/C=C/C(O)(CC)CC)CC[C@@H]23)C[C@@H](O)C[C@@H]1O (stereo not given in full) | 480 | 576 | 522 |
| O=c1sn(-c2cccc3ccccc23)c(=O)n1Cc1ccccc1 | 462 | 501 | 433 |
| C[C@]12C[C@H](O)[C@H]3[C@@H](CC\C4=C\C(=O)\C=C/[C@]34C)[C@@H]1CC[C@]2(O)C(=O)CO | 496 | 590 | 545 |
| CC#CCn1c(N2CCC[C@@H](N)C2)nc2c1c(=O)n(Cc1nc(C)c3ccccc3n1)c(=O)n2C | 503 | 606 | 561 |
| Nc1nc(OC(c2ccc(-c3cccc(F)c3)cc2)C(F)(F)F)cc(-c2ccc(C[C@H](N)C(=O)O)cc2)n1 (stereo not given in full) | 546 | 519 | 555 |
| Cc1cc(/C=c2/sc3nc4ccccc4n3c2=O)c(C)n1-c1ccccc1 | 569 | 625 | 549 |
| COC1=CC(=CC=C1)C2=CC=C(NC(=O)/C3=C(/CCC3)C(O)=O)C(=C2)F | 450 | 509 | 491 |
| C[C@](N)(Cc1ccc(O)c(O)c1)C(=O)O | 475 | 477 | 524 |
| CC(C)C[C@@H]1NC(=O)[C@@H](C(C)C)NC(=O)[C@@H]2CCCN2C(=O)[C@@H](CC(=O)O)NC(=O)[C@@H](Cc2c[nH]c3ccccc23)NC1=O | 489 | 604 | 550 |
| Clc1cc2c(NC3CCCC3)nnc(-c3ccncc3)c2cc1Cl | 581 | 609 | 518 |
| COC[C@@H](c1ccc(C(F)(F)F)cc1)N1CCN(C2(C)CCN(C(=O)c3c(C)ncnc3C)CC2)C[C@@H]1C | 501 | 541 | 513 |
| CC(NC1=CC=CC=C1)C\2=C\C(=C/N3C(=O)\C=C(/N=C23)N4CCOCC4)C (stereo not given) | 414 | 647 | 583 |
| NCCCCCC(=O)O | 509 | 585 | 540 |

| SMILES | area under concentration-response curve (CU-ACC1) | area under concentration-response curve (CU-ACC2) | area under concentration-response curve (NCI-H295R) |
| --- | --- | --- | --- |
| C[N]1C=C(C=N1)C2=C3\C=N/NC(=O)C4=C3C(=CC(=C4)NC(=O)[C@H](N)C5CCCCC5)[NH]2 | 530 | 594 | 555 |
| CC(C(=O)O)c1ccc(-c2ccccc2)c(F)c1 (stereo not given) | 469 | 479 | 470 |
| CN(C)NC(=O)CCC(=O)O | 405 | 410 | 397 |
| O=C(C1CCCCC1)N1CC(=O)N2CCc3ccccc3C2C1 (stereo not given) | 555 | 631 | 544 |
| CC(=O)OCC(CCn1cnc2cnc(N)nc21)COC(C)=O | 565 | 596 | 570 |
| CC(C)Cn1cnc2c(N)nc3ccccc3c21 | 640 | 683 | 630 |
| OC(c1ccc(-c2ccc(CN3CCN(Cc4ccncc4)CC3)cc2)c(F)c1)(C(F)(F)F)C(F)(F)F | 584 | 638 | 581 |
| CC1(C)CCC(=C(CN2CCN(CC2)C3=CC=C(C=C3)C(=O)N[S+]([O-])(=O)C4=CC(=C(N[C@H](CCN5CCOCC5)CSC6=CC=CC=C6)C=C4)[S+]([O-])(=O)C(F)(F)F)\C1)/C7=CC=C(Cl)C=C7 | 439 | 373 | 463 |
| CNC[C@H](O)c1ccc(O)c(O)c1 | 530 | 608 | 592 |
| C[C@]12CC[C@@H]3c4ccc(OC(=O)N(CCCl)CCCl)cc4CC[C@H]3[C@@H]1CC[C@@H]2OP(=O)([O-])[O-] | 489 | 466 | 533 |
| C[C@]12CCC3[C@@H](CC[C@H]4NC(=O)\C=C/[C@]34C)[C@@H]1CC[C@@H]2C(=O)NC5=CC(=CC=C5C(F)(F)F)C(F)(F)F (stereo not given in full) | 557 | 645 | 578 |
| C=C(C)[C@@H]1CC[C@]2(C)CC[C@]3(C)[C@H](CC[C@@H]4[C@@]5(C)CC[C@H](O)C(C)(C)[C@@H]5CC[C@]43C)[C@@H]12 | 484 | 582 | 551 |
| N[S+](=O)([O-])NCCNc1nonc1/C(=N/O)Nc1ccc(F)c(Br)c1 | 524 | 595 | 468 |
| CCN1C(=O)\C(=C/C2=C1N=C(NC3=CC=C(N4CCNCC4)C(=C3)F)N=C2)C5=CC=C(Cl)C=C5Cl | 518 | 580 | 537 |
| CCOc1cc(N)c(Cl)cc1C(=O)NCC1CN(Cc2ccc(F)cc2)CCO1 (stereo not given) | 554 | 538 | 542 |
| CC1=C(C)C\2=C(S1)[N]3C(=NN=C3[C@H](CC(N)=O)\N=C2C4=CC=C(Cl)C=C4)C | 516 | 538 | 452 |
| CN[C@@H]1[C@@H](O)[C@@H](O[C@@H]2[C@@H](O)[C@H](O[C@H]3O[C@H](CN)[C@@H](O)[C@H](O)[C@H]3O)[C@@H](N)C[C@H]2NC(=O)C(O)CN)OC[C@]1(C)O.O=S(=O)(O)O (stereo not given in full) | 526 | 601 | 553 |
| CCCCCCNC(=O)N1\C=C(F)/C(=O)NC1=O | 513 | 633 | 589 |
| NCCc1ccc(O)c(O)c1 | 506 | 586 | 478 |
| CCOC(=O)[C@H](CCc1ccccc1)N[C@H]1CS[C@H](c2cccs2)CN(CC(=O)O)C1=O.Cl | 513 | 584 | 541 |
| CC\1=C(C(=O)N(\C=C1)C2=CC=C(C=C2)C3=NC=CO3)/C4=CC5=CN=C(N)N=C5C=C4 | 547 | 625 | 574 |
| CC(C)c1cc(C(C)C)c(CC(=O)N[S+](=O)([O-])Oc2c(C(C)C)cccc2C(C)C)c(C(C)C)c1 | 456 | 454 | 480 |
